Measurements published in the supplement of paper PMC11208160.

Assay: recombinant UMI read abundance after kanamycin selection (control-corrected) (log10(CPM+1)); higher = more efficient recombination; extreme values may be limits of the assay; sequences stand for … in AGTGCAGAGAAAATCGGCCAGTTTTCTCTGCCTGCAGTCCGCATGCCGTGGGACCCCTTGGGTTCTAACCTGTTGCCTAGATTTATGCAGCGGACTGCCTTTCTCCCAAAGTGATAAACCGG…AGGTTGGTTTCACT; site = the 11-nt donor
Procedure, shortened: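 Sequenced counts of recombinant UMIs were turned into CPM, averaged across replicates and scaled with control-derived factors. The reported figure is log10(CPM+1). Those UMIs, each 12 nt long, tagged donor and donor-binding-loop pairs on a plasmid with a promoterless kanamycin gene, screened as a pool in Escherichia coli with IPTG (0.07 mM) plus kanamycin or without selection.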
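Further: IS621 bridge recombinase in Escherichia coli cells against a fixed T5 target plasmid.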

Sequence | recombinant UMI read abundance (log10)
CTAGTATCATGGACCGGTTTTCCCGGTAATCCGTATTTGAC (site CTAATAACTGT) | 0
CTAGTATCATGGACCGGTTTTCCCGGTAATCCGTATTTGAC (site CTAATATCTCT) | 0.764
CTAGTATCATGGACCGGTTTTCCCGGTAATCCGTATTTGAC (site CTAATATCTGA) | 0
CTAGTATCATGGACCGGTTTTCCCGGTAATCCGTATTTGAC (site CTAATATCTGT) | 1.63
CTAGTATCATGGACCGGTTTTCCCGGTAATCCGTATTTGAC (site CTAATCTCTGT) | 0
CTAGTATCATGGACCGGTTTTCCCGGTAATCCGTATTTGAC (site CTACCATCTGT) | 0
CTAGTATCATGGACCGGTTTTCCCGGTAATCCGTATTTGAC (site CTACTAGCTGT) | 0
CTAGTATCATGGACCGGTTTTCCCGGTAATCCGTATTTGAC (site CTACTATCTGG) | 0
CTAGTATCATGGACCGGTTTTCCCGGTAATCCGTATTTGAC (site CTACTATCTGT) | 0.925
CTAGTATCATGGACCGGTTTTCCCGGTAATCCGTATTTGAC (site CTACTATCTTT) | 0.0334
CTAGTATCATGGACCGGTTTTCCCGGTAATCCGTATTTGAC (site CTACTTTCTGT) | 0
CTAGTATCATGGACCGGTTTTCCCGGTAATCCGTATTTGAC (site CTAGAAACTGT) | 0
CTAGTATCATGGACCGGTTTTCCCGGTAATCCGTATTTGAC (site CTAGAATCTCT) | 0
CTAGTATCATGGACCGGTTTTCCCGGTAATCCGTATTTGAC (site CTAGAATCTGA) | 0
CTAGTATCATGGACCGGTTTTCCCGGTAATCCGTATTTGAC (site CTAGAATCTGT) | 0.992
CTAGTATCATGGACCGGTTTTCCCGGTAATCCGTATTTGAC (site CTAGACTCTGT) | 0
CTAGTATCATGGACCGGTTTTCCCGGTAATCCGTATTTGAC (site CTAGCAGCTGT) | 0
CTAGTATCATGGACCGGTTTTCCCGGTAATCCGTATTTGAC (site CTAGCATCTGG) | 0
CTAGTATCATGGACCGGTTTTCCCGGTAATCCGTATTTGAC (site CTAGCATCTGT) | 1.59

Sequence | recombinant UMI read abundance (log10)
CTAGTATCATGGACCGGTTTTCCCGGTAATCCGTATTTGAC (site CTAGCATCTTT) | 0.0133
CTAGTATCATGGACCGGTTTTCCCGGTAATCCGTATTTGAC (site CTAGCTTCTGT) | 0
CTAGTATCATGGACCGGTTTTCCCGGTAATCCGTATTTGAC (site CTAGGACCTGT) | 0
CTAGTATCATGGACCGGTTTTCCCGGTAATCCGTATTTGAC (site CTAGGATCTAT) | 0.00421
CTAGTATCATGGACCGGTTTTCCCGGTAATCCGTATTTGAC (site CTAGGATCTGC) | 0
CTAGTATCATGGACCGGTTTTCCCGGTAATCCGTATTTGAC (site CTAGGATCTGT) | 0.927
CTAGTATCATGGACCGGTTTTCCCGGTAATCCGTATTTGAC (site CTAGGGTCTGT) | 0
CTAGTATCATGGACCGGTTTTCCCGGTAATCCGTATTTGAC (site CTAGTAACTCT) | 0.0077
CTAGTATCATGGACCGGTTTTCCCGGTAATCCGTATTTGAC (site CTAGTAACTGA) | 0
CTAGTATCATGGACCGGTTTTCCCGGTAATCCGTATTTGAC (site CTAGTAACTGT) | 1.82
CTAGTATCATGGACCGGTTTTCCCGGTAATCCGTATTTGAC (site CTAGTACCTAT) | 0.00604
CTAGTATCATGGACCGGTTTTCCCGGTAATCCGTATTTGAC (site CTAGTACCTGC) | 0
CTAGTATCATGGACCGGTTTTCCCGGTAATCCGTATTTGAC (site CTAGTACCTGT) | 0
CTAGTATCATGGACCGGTTTTCCCGGTAATCCGTATTTGAC (site CTAGTAGCTGG) | 0
CTAGTATCATGGACCGGTTTTCCCGGTAATCCGTATTTGAC (site CTAGTAGCTGT) | 0
CTAGTATCATGGACCGGTTTTCCCGGTAATCCGTATTTGAC (site CTAGTAGCTTT) | 0.0305
CTAGTATCATGGACCGGTTTTCCCGGTAATCCGTATTTGAC (site CTAGTATCTAC) | 0.564
CTAGTATCATGGACCGGTTTTCCCGGTAATCCGTATTTGAC (site CTAGTATCTAT) | 2.78
